From patent US7479484B2, “Peptides and peptidomimetics having immune-modulating, anti-inflammatory, and anti-viral activity” (priority 2003, dated 2009)
In brackets after ≈: the same amount, converted by molar mass. Several values for one entry are separate records, joined by “and”; a condition that tells them apart may be missing. Identical values can stand only once. Counter-ions that a name gives are not always drawn. Like-named read-outs stand apart in the source and are kept apart here. Marks after values point to notes of the source that are not given here. Where a SMILES comes first, the peptide text is derived from it. [ ]: non-standard residue; d: D form. dPhe(F5) = N[C@H](Cc1c(F)c(F)c(F)c(F)c1F)C(=O)O; dBpa = N[C@H](Cc1ccc(C(=O)c2ccccc2)cc1)C(=O)O; dCha = N[C@H](CC1CCCCC1)C(=O)O

Key:
[1] = Cytotoxicity in PBMC (tetrazolium dye reduction); type: cell-based; details: human, peripheral blood mononuclear cells (PBMC), highest concentration tested 80 μg/ml, called an estimate, read-out: TC50 (concentration decreasing cell viability by 50%)
Method: (§1) CBP501 was tested for antiviral activity against HIV-1 in peripheral blood mononuclear cells (PBMC) using the clinical pediatric HIV strain WeJo. PBMCs were derived from normal HIV-1-negative donors, and cultured under conditions which promote cell survival and HIV replication. Antiviral activity was measured by detecting the amount of extracellular HIV-1p24 protein in a sample, where a decrease in p24 levels indicated antiviral activity. Cytotoxity was measured by a tetrazolium dye reduction method. Antiviral activity was analyzed for a series of dilutions of a stock solution of 100 μg/ml CBP501. The experiments were performed using serial dilutions of the compound, generating a series of concentrations from 0.3125 to 80 μg/ml CBP501.

[2] = system: peripheral blood mononuclear cells (PBMC); assay: Cytotoxicity in PBMC (tetrazolium dye reduction); type: cell-based
Method: as §1

[3] = system: adjuvant-induced arthritis; details: rat
[4] = system: passive cutaneous anaphylaxis (PCA); assay: Passive cutaneous anaphylaxis (PCA) in rats; type: in vivo, Wistar rats; details: rat, IP; for PCA Response 1st Spot / PCA Response 2nd Spot: weal score per animal (N 1-3); for % Inhibition: relative to vehicle control group; for Total PCA Response: sum of scores of 3 animals
Method: CBP501 (SEQ ID NO: 80) was evaluated for anti-allergic activity in a model of passive cutaneous anaphylaxis (PCA) in Wistar rats. CBP501, at doses of 20, 10, and 5 mg/kg, was administered intraperitoneally (IP) 30 minutes before challenge with a mixture of ovalbumin and Evans Blue dye.
CBP501 was dissolved in 0.9% NaCl. CBP501, at 20, 10 and 5 mg/kg, was administered intraperitoneally (IP) 30 min before challenge with a mixture of ovalbumin and Evans Blue dye.
Animals: Male or female Wistar rats were provided by the animal breeding center of MDS Pharma Services-Taiwan Ltd. Space allocation for 6 animals was 45×23×21 cm. All animals were maintained in a hygienic environment in a controlled temperature (21.5-22.5° C.) and humidity (50%-70%) environment, with 12 hour light-dark cycles for at least one week, housed in the MDS Pharma Services-Taiwan Laboratory, prior to being used. All aspects of this work including housing, experimentation and disposal of animals were performed in general accordance with the International Guiding Principles for Biomedical Research Involving Animals (CIOMS Publication No. ISBN 92 90360194, 1985).
Chemicals: Cyproheptadine-HCl (RBI-USA), ethanol absolute (Merck, Germany), distilled water (in-house), Evans Blue (Fluka, Switzerland), and ovalbumin (Sigma-Aldrich, USA) were used.
Method of administration: Five groups of three (3) Wistar-derived male rats weighing 80+/−10 g were passively sensitized 16 hours earlier by intradermal injection of reaginic (IgE) antiovalbumin serum (0.05 ml) on two spots of the dorsal surface. […] Within 30 minutes after administration of CBP501, the animals were challenged intravenously (IV) with a mixture of ovalbumin (1 mg) and Evans Blue dye (5 mg). Animals were sacrificed 30 minutes after challenge.
Results: Two measured weal diameters were averaged for each animal and scored 0 if <0.05 cm, 1 if 0.05-0.2 cm, 2 if 0.2-0.4 cm, 3 if 0.4-0.6 cm, 4 if 0.6-0.8 cm and 5 if >0.8 cm. Maximum possible score for each animal totals 2×5=10. Inhibition of the resulting PCA blue colored weal by 50 percent or more relative to the vehicle control group indicates possible antiallergic activity. Results are shown in Table 1, below, where significant changes are indicated by an asterisk(*).

[5] = Cytotoxicity in monocyte/macrophages (tetrazolium dye reduction); type: cell-based, human; details: human, highest concentration tested 80 μg/ml, called an estimate, read-out: TC50 (concentration decreasing cell viability by 50%)
Method: as §1, with “evaluated” for “tested”, “activity” for “activity against HIV-1”, “monocyte/macrophages” for “peripheral blood mononuclear cells (PBMC)”, “the” for “the clinical pediatric”, “Ba-L. Monocyte/macrophages” for “WeJo. PBMCs”

[6] = system: monocyte/macrophages; assay: as above; type: cell-based, human
Method: as §1, with “evaluated” for “tested”, “activity” for “activity against HIV-1”, “monocyte/macrophages” for “peripheral blood mononuclear cells (PBMC)”, “the” for “the clinical pediatric”, “Ba-L. Monocyte/macrophages” for “WeJo. PBMCs”

[7] = system: HIV-1 strain WeJo; assay: Inhibition of HIV-1 replication in PBMC (extracellular p24); type: cell-based; details: HIV-1 strain WeJo in PBMC
Method: as §1

[8] = system: HIV-1 strain Ba-L; assay: Inhibition of HIV-1 replication in human monocyte/macrophages (extracellular p24); type: cell-based; details: HIV-1 strain Ba-L in monocyte/macrophages
Method: as §1, with “evaluated” for “tested”, “activity” for “activity against HIV-1”, “monocyte/macrophages” for “peripheral blood mononuclear cells (PBMC)”, “the” for “the clinical pediatric”, “Ba-L. Monocyte/macrophages” for “WeJo. PBMCs”

[9] = system: 14-3-3 protein; details: as disclosed in U.S. application Ser. No. 10/347,145; cited from earlier work
[10] = system: kinases involved in the cell cycle G2 checkpoint, including mitogen activated kinase p38; details: as disclosed in U.S. application Ser. No. 10/347,145; cited from earlier work
[11] = highest concentration tested 80 μg/ml, called an estimate
[12] = 5 mg/kg, 30 min before challenge
[13] = 10 mg/kg, 30 min before challenge
[14] = 20 mg/kg, 30 min before challenge

## N=C(N)NCCC[C@@H](NC(=O)[C@@H](CCCNC(=N)N)NC(=O)[C@@H](CCC(N)=O)NC(=O)[C@@H](CCCNC(=N)N)NC(=O)[C@@H](CCCNC(=N)N)NC(=O)[C@@H](CCCNC(=N)N)NC(=O)[C@@H](CC1CCCCC1)NC(=O)[C@@H](Cc1c(F)c(F)c(F)c(F)c1F)NC(=O)[C@@H](CO)NC(=O)[C@@H](Cc1c[nH]c2ccccc12)NC(=O)[C@@H](CO)NC(=O)[C@H](N)Cc1ccc(C(=O)c2ccccc2)cc1)C(=O)O [CBP501, (d-Bpa)(d-Ser)(d-Trp)(d-Ser)(d-Phe-2,3,4,5,6-F)(d-Cha)(d-Arg)(d-Arg)(d-Arg)(d-Gln)(d-Arg)(d-Arg)] (H-[dBpa][dS][dW][dS][dPhe(F5)][dCha][dR][dR][dR][dQ][dR][dR]-OH)
[1]
  CC50: > 80 µg/mL
[2]; 80 μg/ml
  cell viability at the highest concentration tested (in words): hardly affected
[2]; [11]
  TC50 (concentration decreasing cell viability by 50%): > 80 µg/mL
[3]; IP, 2.5 mg/kg ×5 doses
  activity in acute phase (in words): moderate but non-significant activity
  activity in late phase (in words): no activity
[3]; IP, 5 mg/kg once daily for 5 consecutive days
  anti-inflammatory activity in both acute and late phase (in words): significant anti-inflammatory activity
[3]; IP, 10 mg/kg single dose
  anti-inflammatory activity in both acute and late phase (in words): significant anti-inflammatory activity
[3]; in vivo, ip, 2.5 mg/kg
  % Inhibition relative to Vehicle treated control, Days (1-5): 27%
  % Inhibition relative to Vehicle treated control, Days (14-18): −11%
[3]; in vivo, ip, 5 mg/kg
  % Inhibition relative to Vehicle treated control, Days (1-5): 51* %
  % Inhibition relative to Vehicle treated control, Days (14-18): 34* %
[3]; in vivo, ip, 10 mg/kg
  % Inhibition relative to Vehicle treated control, Days (1-5): 61* %
  % Inhibition relative to Vehicle treated control, Days (14-18): 31* %
[4]; [12]
  PCA Response 1st Spot: 0 (0 if <0.05 cm) and 1 (1 if 0.05-0.2 cm) (2×)
  PCA Response 2nd Spot: 0 (0 if <0.05 cm) and 1 (1 if 0.05-0.2 cm) (2×)
[4]; 5 mg/kg, 5 mg/kg
  % Inhibition: 87%
[4]; 5 mg/kg
  Total PCA Response: 4
[4]; [13]
  PCA Response 1st Spot: 0 (0 if <0.05 cm) (2×) and 1 (1 if 0.05-0.2 cm)
  PCA Response 2nd Spot: 0 (0 if <0.05 cm) (2×) and 1 (1 if 0.05-0.2 cm)
[4]; 10 mg/kg, 10 mg/kg
  % Inhibition: 93%
[4]; 10 mg/kg
  Total PCA Response: 2
[4]; [14]
  PCA Response 1st Spot: 0 (0 if <0.05 cm) (2×) and 1 (1 if 0.05-0.2 cm)
  PCA Response 2nd Spot: 0 (0 if <0.05 cm) (2×) and 1 (1 if 0.05-0.2 cm)
[4]; 20 mg/kg, 20 mg/kg
  % Inhibition: 93%
[4]; 20 mg/kg
  Total PCA Response: 2
[5]
  CC50: > 80 µg/mL
[6]; 80 μg/ml
  decrease of cell viability at the highest concentration tested: about 25%
[6]; [11]
  TC50 (concentration decreasing cell viability by 50%): > 80 µg/mL
[7]
  TI (therapeutic index=TC50/IC50): > 113
[7]; p24
  IC50 (concentration that inhibited virus replication by 50%): 0.71 µg/mL (≈ 0.368 µM)
[8]
  TI (therapeutic index=TC50/IC50): > 12.3
[8]; p24
  IC50 (concentration that inhibited virus replication by 50%): 6.5 µg/mL (≈ 3.37 µM)
[9]
  binding to 14-3-3 protein (in words): binds
[10]
  inhibition of phosphorylation activities of kinases involved in the cell cycle G2 checkpoint (in words): inhibits the phosphorylation activities

## CN1CCC(=C2c3ccccc3C=Cc3ccccc32)CC1 [Cyproheptadine, Cyproheptadine-HCl, reference compound]
[4]; 1 mg/kg, 1 mg/kg
  % Inhibition: 87* %
[4]; 1 mg/kg, listed as cyproheptadine-HCl, 1 mg/kg
  % Inhibition: 87%
[4]; 1 mg/kg
  Total PCA Response: 4
  PCA Response 1st Spot: 0 (0 if <0.05 cm) and 1 (1 if 0.05-0.2 cm) (2×)
  PCA Response 2nd Spot: 0 (0 if <0.05 cm) and 1 (1 if 0.05-0.2 cm) (2×)

## C[C@]12CCC(=O)C=C1CC[C@@H]1[C@@H]2[C@@H](O)C[C@@]2(C)[C@H]1CC[C@]2(O)C(=O)CO [Hydrocortisone, hydrocortisone, reference compound]
[3]; 30 mg/kg daily for 5 days
  activity in the acute phase (in words): significant activity
  activity in the late phase (in words): near-significant activity
[3]; PO, 30 mg/kg per dose × 5 doses, left hind paw volume, late phase
  % Inhibition relative to Vehicle treated control, Days (14-18): 29%
[3]; PO, 30 mg/kg per dose × 5 doses, right hind paw volume, acute phase
  % Inhibition relative to Vehicle treated control, Days (1-5): 42* %
